≈ marks a conversion by molar mass, not a printed value.
Key:
[1] = tested on: Escherichia coli acrAB::Tn903 (CB-219); test: Micro RI (resistance) bioassay on E. coli CB-219; type: cell-based
Procedure: (§1) The frequency of resistance to MDN-0057 and MDN-0058 was assessed on Escherichia coli acrAB::Tn903 (CB-219) and wild type (WT) Acinetobacter baumannii (ATCC BAA-747). For this purpose, the Minimum Inhibitory Concentration of MDN-0057 versus each strain was determined by broth microdilution as described in Clinical Laboratory Standards Institute publication M07-A9, Vol. 32, No. 2., “Methods for Dilution Antimicrobial Susceptibility Tests for Bacteria that Grow Aerobically; Approved Standard—Ninth Edition,” January 2012. Six-well plates containing Mueller Hinton II agar (5 mL per well) were prepared with MDN-0057 or MDN-0058 at concentrations 4-fold and 8-fold above the MIC. Cultures were grown to late log phase and spread on the agar. Plates were incubated at 37° C. and examined after one and two days of incubation.
(§2) Six to eight isolates from each species were obtained by re-streaking growth from the plates on antibiotic-free tryptic soy agar plates, and MICs of MDN-0057 versus the isolates were subsequently determined. MICs of the E. coli isolates were elevated at least 16-64-fold relative to their parent strain, CB-219.

P. aeruginosa ATCC 27853 = test: Broth microdilution MIC; type: cell-based, Pseudomonas aeruginosa; details: P. aeruginosa ATCC 27853, wild type
Procedure: (§3) Antibacterial activity of compounds MDN-0057, MDN-0058, MDN-0059 and MDN-0060 was evaluated using the broth microdilution methodology. This method is used to determine minimum inhibitory concentrations (MICs) which are defined as the lowest concentration of an antimicrobial compound that will inhibit the visible growth of a microorganism after overnight incubation.
(§4) In the microbroth dilution assay, microorganisms were selected by streaking bacteria culture from a cryovial into Mueller Hinton II (MHII) agar plate(s) and incubate overnight at 37° C. Thereafter, 3 to 5 characteristic fresh colonies were selected and suspended in 25 mL of MHII broth media for 2 hours shaking at 220 rpm. The 2 hour broth cultures were adjusted to an optical density of 0.111 at 660 nm and then diluted to 1:100 in order to obtain assay inoculums.
(§5) The four compounds evaluated were serially diluted in 100% DMSO with a dilution factor of 2 to provide 10 compound concentrations starting at 8 mg/mL.
(§6) For the assays, 90 μL/well of the appropriated diluted inoculum were mixed with 1.6 μL/well of each compound concentration and 8.4 μL/well of MHII broth media, resulting in an additional dilution of these compounds to yield concentrations in the assay wells from 128 μg/mL to 0.25 μg/mL. After that, the assay plates were read in a Tecan Ultraevolution spectrophotometer at 612 nm for T0 (zero time). Then, the plates were statically incubated at 37° C. for 20 hours. After incubation, they were shaken in a DPC Micromix-5 and read again for Tf (final time). Percentage of growth inhibition was calculated using the following normalization:
(§7) % Inhibition=[1-[(TfSample-T0Sample)−(TfBlank-T0blank)/(TfGrowth-T0Growth)−(TfBlank-T0blank)]×100. • Where, • T0 Sample=the absorbance of the strain growth in the presence of sample measured at zero time (before incubation). • Tf Sample=the absorbance of the strain growth in the presence of sample measured at final time (after incubation) • T0 Growth=the absorbance of the strain growth in the absence of sample measured at zero time (before incubation). • Tf Growth=the absorbance of the strain growth in the absence of sample measured at final time (after incubation). • T0 Blank=the absorbance of the broth medium (blank) measured at zero time (before incubation). • Tf Blank=the absorbance of the broth medium (blank) measured at final time (after incubation).

P. aeruginosa 839 = test: Broth microdilution MIC; type: cell-based, Pseudomonas aeruginosa; details: P. aeruginosa 839, ΔMexAB-OprM
Procedure: as §3, §4, §5, §6, §7

[2] = tested on: RNA synthesis in E. coli acrAB::Tn903; test: Macromolecular labeling assay, RNA synthesis; type: cell-based, Escherichia coli; details: at up to 8-fold the MIC, [3H] uridine
Procedure: (§8) The macromolecular synthesis assay, in which the inhibition of the intracellular building blocks of macromolecules are measured, provides guidance for understanding the broad MOA of compounds
(§9) The inhibitory effect on synthesis of macromolecules in the lipid, cell wall, DNA, RNA and protein synthesis pathways was determined in growing cells of E. coli acrAB::Tn903. Cells were grown at 35° C. overnight on Trypticase Soy agar, and this culture was used to inoculate 15 ml of Mueller Hinton broth II (MHB). The culture was grown to early exponential growth phase (OD600=0.2 to 0.3) while incubating in a shaker at 35° C. and 200 rpm.
(§10) Cells in early exponential phase were exposed to MDN-0057, and their incorporation of radioactive precursors in each pathway was determined. Rifampicin, Ciprofloxacin, Tetracycline, Imipenem and Irgasan were included as positive controls for inhibition of RNA, DNA, protein, cell wall and lipid synthesis, respectively. (FIG. 1)
(§11) DNA, RNA, and protein synthesis: When cells reached early exponential phase, 100 μL of culture was added to triplicate wells containing various concentrations of MDN-0057 or control antibiotics (2.5 μL) at 40× the final concentration in 100% DMSO or deionized water (dH2O). […] After washing five times with 200 μL per well of cold 5% TCA, the filters were allowed to dry, and then counted using a Packard Top Count microplate scintillation counter.

[3] = tested on: protein synthesis in E. coli acrAB::Tn903; test: Macromolecular labeling assay, protein synthesis; type: cell-based, Escherichia coli; details: at up to 8-fold the MIC, [3H] leucine
Procedure: as §8, §9, §10, §11

[4] = tested on: DNA synthesis in E. coli acrAB::Tn903; test: Macromolecular labeling assay, DNA synthesis; type: cell-based, Escherichia coli; details: at up to 8-fold the MIC, [3H] thymidine
Procedure: as §8, §9, §10, §11

[5] = tested on: wild type (WT) Acinetobacter baumannii (ATCC BAA-747); test: Resistance bioassay on A. baumannii; type: cell-based
Procedure: as §1, §2

A. baumannii 2445 = test: Broth microdilution MIC; type: cell-based, Acinetobacter baumannii; details: A. baumannii 2445, ΔadeABC
Procedure: as §3, §4, §5, §6, §7

A. baumannii 2443 = test: Broth microdilution MIC; type: cell-based, Acinetobacter baumannii; details: A. baumannii 2443, Clinical isolate
Procedure: as §3, §4, §5, §6, §7

A. baumannii 2444 = test: Broth microdilution MIC; type: cell-based, Acinetobacter baumannii; details: A. baumannii 2444, ΔadellJK
Procedure: as §3, §4, §5, §6, §7

A. baumannii 2446 = test: Broth microdilution MIC; type: cell-based, Acinetobacter baumannii; details: A. baumannii 2446, ΔadeABC, ΔadellJK
Procedure: as §3, §4, §5, §6, §7

[6] = tested on: A. baumannii ATCC BAA-747; test: Broth microdilution MIC; type: cell-based, Acinetobacter baumannii; details: A. baumannii ATCC BAA-747, Clinical isolate
Procedure: as §3, §4, §5, §6, §7

A. baumannii ATCC 19606 = test: Broth microdilution MIC; type: cell-based, Acinetobacter baumannii; details: A. baumannii ATCC 19606, Clinical isolate
Procedure: as §3, §4, §5, §6, §7

A. baumannii 5973 = test: Broth microdilution MIC; type: cell-based, Acinetobacter baumannii; details: A. baumannii 5973, Clinical isolate
Procedure: as §3, §4, §5, §6, §7

E. coli ATCC 25922 = test: Broth microdilution MIC; type: cell-based, Escherichia coli; details: E. coli ATCC 25922, wild type
Procedure: as §3, §4, §5, §6, §7

E. coli 219 = test: Broth microdilution MIC; type: cell-based, Escherichia coli; details: E. coli 219, ΔAcrAB::Tn903kan
Procedure: as §3, §4, §5, §6, §7

[7] = tested on: cell wall synthesis in E. coli acrAB::Tn903; test: Macromolecular labeling assay, cell wall synthesis; type: cell-based, Escherichia coli
Procedure: as §8, §9
Cells in early exponential phase were exposed to MDN-0057, and their incorporation of radioactive precursors in each pathway was determined. […]
Cell wall synthesis: Bacterial cells in early exponential growth phase were transferred to M9 minimal medium and added to 1.5 ml eppendorf tubes (100 μl/tube) containing various concentrations of MDN-0057 or control antibiotics (2.5 μl) at 40× the final concentration in 100% DMSO or dH2O as described above. […] After washing three times with 5 ml of 0.1% SDS, the filters were rinsed two times with 5 mL of dH2O, allowed to dry, and then counted using a Beckman LS3801 liquid scintillation counter.

K. pneumoniae 847 = test: Broth microdilution MIC; type: cell-based, Klebsiella pneumoniae; details: K. pneumoniae 847, Clinical isolate
Procedure: as §3, §4, §5, §6, §7

K. pneumoniae 21 = test: Broth microdilution MIC; type: cell-based, Klebsiella pneumoniae; details: K. pneumoniae 21, permeable strain
Procedure: as §3, §4, §5, §6, §7

S. aureus ATCC 29213 = test: Broth microdilution MIC; type: cell-based, Staphylococcus aureus; details: for MIC: S. aureus ATCC 29213, wild type
Procedure: as §3, §4, §5, §6, §7

[8] = tested on: lipid synthesis in E. coli acrAB::Tn903; test: Macromolecular labeling assay, lipid synthesis; type: cell-based, Escherichia coli; details: at up to 8-fold the MIC, [3H] glycerol
Procedure: as §8, §9, §10
Lipid synthesis: Bacterial cells were grown to early exponential growth phase in MHB and 100 μL was added to 1.5 mL eppendorf tubes (in triplicate) containing various concentrations of MDN-0057 or control antibiotics as described above. Following a 5 min incubation at room temperature, [3H] glycerol was added at 0.5 μCi per reaction. […] Samples were then counted via liquid scintillation counting.

[9] = E. coli_219, Micro RI, Isolate #1_4X
[10] = E. coli_219, Micro RI, Isolate #2_8X
[11] = E. coli_219, Micro RI, Isolate #3_4X
[12] = E. coli_219, Micro RI, Isolate #4_4X
[13] = E. coli_219, Micro RI, Isolate #5_8X
[14] = six to eight isolates re-streaked from the plates

Structure (SMILES) | MIC [1, 9] [mg/L] | MIC [1, 10] [mg/L] | MIC [1, 11] [mg/L] | MIC [1, 12] [mg/L] | MIC [1, 13] [mg/L] | MIC ([1]; E. coli_219, Parent) [mg/L] | MIC (P. aeruginosa ATCC 27853) [mg/L] | MIC (P. aeruginosa 839) [mg/L] | MIC (A. baumannii 2445) [mg/L] | MIC (A. baumannii 2443) [mg/L] | MIC (A. baumannii 2444) [mg/L] | MIC (A. baumannii 2446) [mg/L] | MIC [6] [mg/L] | MIC (A. baumannii ATCC 19606) [mg/L] | MIC (A. baumannii 5973) [mg/L] | MIC (E. coli ATCC 25922) [mg/L] | MIC (E. coli 219) [mg/L] | MIC (K. pneumoniae 847) [mg/L] | MIC (K. pneumoniae 21) [mg/L] | MIC against S. aureus (No activity) (S. aureus ATCC 29213) [mg/L] | other results
[C-]#[N+]C(=C)C(Cc1ccc(OC)cc1)([N+]#[C-])C1CC(O)CCC1OC(=O)CO (centres unmarked) [MDN-0057] | 0.25 (≈ 0.65 µM) | 0.25 (≈ 0.65 µM) | 0.25 (≈ 0.65 µM) | 0.25 (≈ 0.65 µM) | 0.25 (≈ 0.65 µM) | 0.125 to 0.5 | 2 to 8 | 1 to 2 | 2 (≈ 5.2 µM) | 4 (≈ 10.4 µM) | 0.25 (≈ 0.65 µM) | <0.06 | 2 to 4 | 2 to 4 | 0.25 (≈ 0.65 µM) | 16 to 64 | 0.125 to 0.5 | 64 (≈ 166 µM) | 0.25 (≈ 0.65 µM) | 128 (≈ 333 µM) | Growth on agar containing compound (frequency of resistance) ([1]; E. coli acrAB::Tn903, 4-fold and 8-fold above the broth MIC, after 48 hours of incubation): pinpoint colonies that were too numerous to count; Elevation of MICs of the E. coli isolates relative to parent strain CB-219 [1, 14]: 16-64 fold; Inhibition of RNA synthesis [2]: Little or no inhibition; Inhibition of protein synthesis [3]: Little or no inhibition; Inhibition of DNA synthesis [4]: Little or no inhibition; Growth on agar containing compound (frequency of resistance) ([5]; A. baumannii, 4-fold and 8-fold above the broth MIC, after 24 hours of incubation): a lawn of colonies was apparent; MICs of the A. baumannii isolates compared with parent strain A. baumannii BAA-747 [5, 14]: not significantly different; Maximum inhibition of cell wall synthesis ([7]; at 2 to 8-fold the MIC, [14C] N-acetylglucosamine, apparent dose-response): ca. 75%; Inhibition of Macromolecular Synthesis (FIG. 1 legend) ([7]; at 2× MIC, strain E. coli acrAB::Tn903): signal for Cell Wall Biosynthesis; MIC (S. aureus ATCC 29213): >128 mg/L; Inhibition of lipid synthesis [8]: Little or no inhibition
[C-]#[N+]C(=C)C(Cc1ccc(OC)cc1)([N+]#[C-])C1CC(O)C=CC1OC(=O)CO (centres unmarked) [MDN-0058] | 0.25 (≈ 0.654 µM) | 0.25 (≈ 0.654 µM) | 0.25 (≈ 0.654 µM) | 0.25 (≈ 0.654 µM) | 0.25 (≈ 0.654 µM) | 0.25 to 0.5 | 64 (≈ 167 µM) | 1 to 4 | 2 to 8 | 2 (≈ 5.23 µM) | 0.25 to 1 | <0.06 | 1 to 16 | 2 to 8 | 0.25 (≈ 0.654 µM) | 16 (≈ 41.8 µM) | 0.25 to 0.5 | 64 (≈ 167 µM) | 0.5 (≈ 1.31 µM) | 128 (≈ 335 µM) | MIC (S. aureus ATCC 29213): >128 mg/L
[C-]#[N+]C(=C)C(Cc1ccc(OC)cc1)([N+]#[C-])C1CC(O)CCC1OC(C)=O (centres unmarked) [MDN-0059] |  |  |  |  |  |  | 16 (≈ 43.4 µM) |  |  |  |  |  |  |  | 0.5 to 1 |  |  |  |  |  | 
[C-]#[N+]C(=C)C(Cc1ccc(OC)cc1)([N+]#[C-])C1CC(O)C=CC1OC(C)=O (centres unmarked) [MDN-0060] |  |  |  |  |  |  | 32 to 64 |  |  |  |  |  |  |  | 1 to 2 |  |  |  |  |  | 

Source: US20160185717A1, “COMPOUNDS WITH ANTIBACTERIAL ACTIVITY” (FUNDACIÓN MEDINA. CENTRO DE EXCELENCIA EN INVESTIGACIÓN DE …, priority 2013, published 2016)
